Test results from ChEMBL document CHEMBL3997822, “Asymmetric total synthesis of tetrahydroprotoberberine derivatives and evaluation of their binding affinities at dopamine receptors” (Bioorg Med Chem Lett, 2017).

How the values were obtained:
[1] = molecular target: T1, D(2) dopamine receptor (Homo sapiens, UniProt P14416); test: Displacement of [3H]N-methylspiperone from human dopamine D2 receptor after 1 hr
[2] = molecular target: T2, D(4) dopamine receptor (Homo sapiens, UniProt P21917); test: Displacement of [3H]N-methylspiperone from human dopamine D4 receptor after 1 hr
T2 sequence (P21917 whole entry): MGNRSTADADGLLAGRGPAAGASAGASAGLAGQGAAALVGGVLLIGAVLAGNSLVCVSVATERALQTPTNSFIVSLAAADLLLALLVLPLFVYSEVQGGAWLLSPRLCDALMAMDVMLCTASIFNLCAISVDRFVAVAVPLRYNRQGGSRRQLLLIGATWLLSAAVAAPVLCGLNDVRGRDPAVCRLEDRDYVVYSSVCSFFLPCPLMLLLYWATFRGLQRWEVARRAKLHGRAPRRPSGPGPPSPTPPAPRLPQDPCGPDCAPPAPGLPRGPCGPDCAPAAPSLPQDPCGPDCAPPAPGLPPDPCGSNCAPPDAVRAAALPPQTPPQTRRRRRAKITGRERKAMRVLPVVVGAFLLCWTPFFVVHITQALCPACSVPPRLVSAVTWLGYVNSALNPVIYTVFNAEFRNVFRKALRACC

[3] = molecular target: T3, D(1B) dopamine receptor (Homo sapiens, UniProt P21918); test: Displacement of [3H]SCH23390 from human dopamine D5 receptor after 1 hr
[4] = molecular target: T4, D(3) dopamine receptor (Homo sapiens, UniProt P35462); test: Displacement of [3H]N-methylspiperone from human dopamine D3 receptor after 1 hr
[5] = molecular target: T5, D(1A) dopamine receptor (Homo sapiens, UniProt P21728); test: Displacement of [3H]SCH23390 from human dopamine D1 receptor after 1 hr
[6] = molecular target: T1, D(2) dopamine receptor; test: Displacement of [3H]SCH23390 from human FLAG-tagged dopamine D2 receptor expressed in HEK293 cells after 1 hr; assay type: cell-based
[7] = molecular target: T2, D(4) dopamine receptor; test: Displacement of [3H]SCH23390 from human dopamine D4 receptor expressed in HEK293 cells after 1 hr; assay type: cell-based
[8] = molecular target: T5, D(1A) dopamine receptor; test: Displacement of [3H]SCH23390 from human 3HA-tagged dopamine D1 receptor expressed in HEK293 cells after 1 hr; assay type: cell-based
[9] = molecular target: T3, D(1B) dopamine receptor; conditions: hek293
[10] = molecular target: T4, D(3) dopamine receptor; test: biochemical
Description: Displacement of [3H]SCH23390 from human FLAG-tagged dopamine D3 receptor expressed in HEK293 cells after 1 hr

T3 sequence (P21918 whole entry): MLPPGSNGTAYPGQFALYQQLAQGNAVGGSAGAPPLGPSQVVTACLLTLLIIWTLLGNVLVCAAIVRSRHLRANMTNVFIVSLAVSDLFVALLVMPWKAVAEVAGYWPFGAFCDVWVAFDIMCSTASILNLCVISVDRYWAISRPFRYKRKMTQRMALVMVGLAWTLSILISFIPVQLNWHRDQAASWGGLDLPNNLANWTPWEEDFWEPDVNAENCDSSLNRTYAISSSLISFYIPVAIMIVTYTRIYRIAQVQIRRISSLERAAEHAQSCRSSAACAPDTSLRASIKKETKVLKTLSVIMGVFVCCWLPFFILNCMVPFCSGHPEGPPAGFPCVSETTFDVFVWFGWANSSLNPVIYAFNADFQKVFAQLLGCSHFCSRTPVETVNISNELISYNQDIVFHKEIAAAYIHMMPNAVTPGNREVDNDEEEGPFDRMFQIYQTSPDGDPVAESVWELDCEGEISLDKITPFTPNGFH
T5 sequence (P21728 whole entry): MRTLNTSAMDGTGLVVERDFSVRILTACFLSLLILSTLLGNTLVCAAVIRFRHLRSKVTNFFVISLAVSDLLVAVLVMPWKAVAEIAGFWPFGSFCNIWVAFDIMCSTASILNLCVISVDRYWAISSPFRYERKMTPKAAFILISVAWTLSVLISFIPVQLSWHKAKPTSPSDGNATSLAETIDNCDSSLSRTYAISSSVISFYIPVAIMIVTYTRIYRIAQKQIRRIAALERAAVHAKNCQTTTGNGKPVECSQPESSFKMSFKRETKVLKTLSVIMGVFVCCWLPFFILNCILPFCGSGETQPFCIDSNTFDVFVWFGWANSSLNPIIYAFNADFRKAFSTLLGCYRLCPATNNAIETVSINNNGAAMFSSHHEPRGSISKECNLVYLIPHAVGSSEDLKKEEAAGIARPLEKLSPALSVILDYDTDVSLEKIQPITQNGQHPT
T1 sequence (P14416 whole entry): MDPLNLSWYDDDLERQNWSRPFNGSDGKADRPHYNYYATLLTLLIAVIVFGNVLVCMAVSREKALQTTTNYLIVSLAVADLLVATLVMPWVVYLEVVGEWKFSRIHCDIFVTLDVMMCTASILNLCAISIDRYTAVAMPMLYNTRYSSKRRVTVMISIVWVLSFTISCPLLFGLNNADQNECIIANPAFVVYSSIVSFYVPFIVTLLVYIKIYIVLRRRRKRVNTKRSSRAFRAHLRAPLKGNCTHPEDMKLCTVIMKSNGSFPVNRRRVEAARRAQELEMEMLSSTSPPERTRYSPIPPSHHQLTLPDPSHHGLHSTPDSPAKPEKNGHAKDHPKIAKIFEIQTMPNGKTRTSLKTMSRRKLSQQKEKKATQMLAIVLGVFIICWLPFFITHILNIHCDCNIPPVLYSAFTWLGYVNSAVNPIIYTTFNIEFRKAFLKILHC
T4 sequence (P35462 whole entry): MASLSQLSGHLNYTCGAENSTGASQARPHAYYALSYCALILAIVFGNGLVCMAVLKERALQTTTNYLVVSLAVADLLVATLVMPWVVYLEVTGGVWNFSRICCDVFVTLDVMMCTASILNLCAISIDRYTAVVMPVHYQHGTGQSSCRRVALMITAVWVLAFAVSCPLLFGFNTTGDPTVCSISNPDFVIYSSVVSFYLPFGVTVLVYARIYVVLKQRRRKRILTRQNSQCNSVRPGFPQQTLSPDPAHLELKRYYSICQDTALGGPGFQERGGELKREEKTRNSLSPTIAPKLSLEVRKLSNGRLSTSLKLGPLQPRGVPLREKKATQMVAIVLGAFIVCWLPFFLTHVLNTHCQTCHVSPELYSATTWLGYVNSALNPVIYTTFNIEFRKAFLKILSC

| Compound | Ki [1] | Ki [2] | Ki [3] | Ki [4] | Ki [5] | Ki [6] | Ki [7] | Ki ([8]; hek293) | Ki [9] | Ki [8] | Ki [10] |
| --- | --- | --- | --- | --- | --- | --- | --- | --- | --- | --- | --- |
| COc1ccc2c(c1OC)CN1CCc3cc4c(cc3[C@@H]1C2)OCO4 [CANADINE] | 80.2 nM | 486 nM | 62.1 nM | 433 nM | 48.6 nM | – | – | – | – | – | – |
| COc1cc2c(cc1OC)[C@@H]1Cc3ccc(OC)c(OC)c3CN1CC2 [TETRAHYDROPALMATINE] | – | – | – | – | – | 1120 nM | > 1000 nM | 153 nM | 305 nM | – | – |
| COc1cc2c(cc1O)[C@@H]1Cc3ccc(OC)c(OC)c3CN1CC2 | – | – | – | – | – | – | 77.4 nM | – | – | […] | 37.3 nM |
| COc1cc2c(cc1OC)[C@@H]1Cc3ccc(O)c(OC)c3CN1CC2 | 533 nM | > 1000 nM | 242 nM | 1710 nM | 107 nM | – | – | – | – | – | – |

Continued, in another order:

| Ki [1] | Ki [2] | Ki [3] | Ki [4] | Ki [5] | Compound | Ki [6] | Ki [7] | Ki ([8]; hek293) | Ki [9] | Ki [8] | Ki [10] |
| --- | --- | --- | --- | --- | --- | --- | --- | --- | --- | --- | --- |
| 49.2 nM | 1980 nM | 15.1 nM | 82.4 nM | 6.5 nM | COc1c(O)ccc2c1CN1CCc3cc4c(cc3[C@@H]1C2)OCO4 | – | – | – | – | – | – |
| 42.4 nM | > 1000 nM | 313 nM | 262 nM | 199 nM | COc1cc2c(cc1O)CCN1Cc3c(ccc(OC)c3OC)C[C@@H]21 | – | – | – | – | – | – |
